The values that follow come from US20170290890A1, “STIMULATION OF OVARIAN FOLLICLE DEVELOPMENT AND OOCYTE MATURATION” (The Board of Trustees of the Leland Stanford Junior …, priority 2014, published 2017).

For one assay, the system named is PTP. Conditions: cited from earlier work.
A further assay has as its target PTEN (Homo sapiens, UniProt P60484). Conditions: cited from earlier work.
For a further assay, the system named is oocytes. Nature of the assay: In vitro fertilization and embryo transfer of oocytes from pretreated grafts. Type of assay: in vivo, mice. On the procedure: (§1) Using this model, we further treated the hosts with eCG for 2 days to promote the growth of preovulatory follicles, followed by an injection of hCG to promote oocyte maturation. At 12 h after hCG injection, mature oocytes were punctured from preovulatory follicles for in vitro fertilization.
Ovaries from B6D2F1 mice at 10 days of age were treated with 10 μM MHY1485 for 2 days, followed by transplantation into kidney capsules of hosts for 5 days. At day 5 after transplantation, animals were treated with 10 IU equine chorionic gonadotropin (eCG) for 48 h, followed by an injection of 10 IU human chorionic gonadotropin (hCG). Twelve hour later, grafts were collected and oocytes were retrieved in the M2 medium (Cytospring, Mountain View, Calif.). As controls, B6D2F1 mice at day 25 of age were treated with 5 IU eCG for 48 h, followed by 5 IU hCG before oocyte retrieval. For in vitro fertilization, sperm from B6D2F1 male mice were collected into human tubal fluid medium (Cytospring) and pre-incubated for 1 h at 37 C. Oocytes were then fertilized with sperm (2-3×10^5/ml) for 6 h, and inseminated oocytes were transferred into KSOM medium (Cytospring) for development into blastocysts. For embryo transfer, two-cell embryos were transferred into oviducts of pseudopregnant, 8-week-old CD1 nice pre-mated with vasectomized males of the same strain.

Assay [1] relates to Ovaries from day 10 mice. Nature of the assay: Ovarian explant culture and follicle counting. Format: cell-based. Conditions: explant culture 4 days. As to the method:
We treated ovaries from day 10 mice with increasing doses of MHY1485 using an explant culture model.
Ovaries from day 10 mice were placed on culture plate inserts (Millipore) and cultured in 400 μl of DMEM/F12 containing 0.1% BSA, 0.1% Albumax II, insulin-transferrin-selenium, 0.05 mg/ml L-ascorbic acid and penicillin-streptomycin under a membrane insert to cover ovaries with a thin layer of medium. Ovaries were treated with 1-10 μM of MHY1485 and cultured for 4 days with medium change after 2 days of culture. At the end of culture, ovaries were fixed with formalin before weighing. Some ovaries were paraffin-embedded and cut into continuous sections. Sections were stained with hematoxylin and eosin for follicle counting, and only follicles with clearly stained oocyte nucleus were counted to avoid recounting of the same follicle.

Assay [2] has as its system Ovaries from day 10 mice. Nature of the assay: Ovarian tissue grafting (in vitro treatment then allo-transplantation under kidney capsules). Format: in vivo. Conditions: 2 days in vitro treatment. As to the method:
as §1
At the end of transplantation, grafts were collected for weight determination and histological analysis. For some animals, ovaries from day 10 mice were treated with IVA drugs (PTEN inhibitor: (bpv(hopic) at 30 μM for the first day and an activator for phosphoinositol-3-kinase 740YP at 150 μg/mL for two days) before grafting.

Another assay deals with mTOR signaling pathway. Nature of the assay: Immunoblotting of mTOR pathway protein phosphorylation in ovaries. As to conditions: day 10 mouse ovaries, 3 h, 10 μM, FIG. 1A. Type of assay: cell-based, mice. On the procedure: Ovaries from day 10 mice were incubated for 3 h with 10 μM of MHY1485 before immunoblotting analyses. […] Activated mTORC1 complex phosphorylates Thr389 in ribosomal S6 kinase (S6K), thereby activating it to subsequently phosphorylate ribosomal protein S6 (rpS6) and promote ribosome biogenesis. We further monitored S6K1 and rpS6 phosphorylation in ovarian tissues.
Ovaries from mice at day 10 of age were treated with MHY1485 (Millipore, Bedford, Mass.) for 3 h and proteins were extracted using M-PER Mammalian Protein Extraction Reagent (Thermo, Rockford, Ill.) containing a protease inhibitor cocktail (Thermo). Protein concentrations in supernatants were determined by the bicinchoninic acid method (Pierce, Rockford, Ill., USA). Equal amounts of protein lysates were loaded on 4-12% NuPAGE Bis-Tris gels (Invitrogen, Carlsbad, Calif.) in MOPS buffer and transferred to […] pore nitrocellulose membranes (LI-COR, Lincoln, Nebr., USA). First antibodies were from Cell Signaling (Beverly, Mass.) and rabbit secondary antibodies from LI-COR. Images were generated using a LI-COR Odyssey infrared imager.

Where [3] appears, read: grafts 5 days with FSH, FIG. 2C.

Chain of PTEN (P60484 whole entry): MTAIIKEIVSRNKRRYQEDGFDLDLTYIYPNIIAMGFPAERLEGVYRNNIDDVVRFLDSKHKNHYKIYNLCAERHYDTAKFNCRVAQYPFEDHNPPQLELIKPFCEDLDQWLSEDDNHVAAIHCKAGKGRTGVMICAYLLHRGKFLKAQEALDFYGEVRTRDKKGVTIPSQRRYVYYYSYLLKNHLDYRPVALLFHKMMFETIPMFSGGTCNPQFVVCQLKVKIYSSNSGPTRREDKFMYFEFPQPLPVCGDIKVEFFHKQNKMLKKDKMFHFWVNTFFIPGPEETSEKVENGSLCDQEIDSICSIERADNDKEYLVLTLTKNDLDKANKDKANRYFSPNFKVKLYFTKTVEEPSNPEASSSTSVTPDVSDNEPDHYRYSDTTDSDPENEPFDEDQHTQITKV

In the case of monoperoxo(picolinato)oxovanadate(V), the concentration for half-maximal inhibition (IC50) in the assay on PTP is 18000 nM.

On to “dipotassium bisperoxo(5-hydroxypyridine-2-carboxyl)oxovanadate (V)”, for which, at PTEN, the concentration for half-maximal inhibition (IC50) was 14 nM.

Take “potassium bisperoxo(bipyridine)oxovanadate (V)”: on PTEN, the concentration for half-maximal inhibition (IC50) is 18 nM.

For the compound `OO.OO.[K+].[OH-].[V].c1cnc2c(c1)ccc1cccnc12` [potassium bisperoxo (1,10-phenanthroline)oxovanadate (V)], the IC50 on PTEN is 38 nM.

`O=[N+]([O-])c1ccc(Nc2nc(N3CCOCC3)nc(N3CCOCC3)n2)cc1` [MHY1485, 4,6-Di-4-morpholinyl-N-(4-nitrophenyl)-1,3,5-triazin-2-amine]: the “development of oocytes after in vitro fertilization” value with oocytes (10 μM 2 days, graft 5 days, eCG then hCG, oocytes fertilized, FIG. 3A) was “could develop into blastocysts”. Further, the “outcome of 2-cell embryo transfer into pseudopregnant surrogate mothers” value with oocytes (FIG. 3C) was “healthy pups were delivered”. For the same compound, the “early embryonic development vs oocytes from day 25 mice (controls)” value in the assay with oocytes (percentage of oocytes developing into each embryonic stage, FIG. 3B) is “comparable early embryonic development”. The ovarian weights result in the assay on Ovaries from day 10 mice [1] (1-10 μM, FIG. 1B) is recorded as “dose-dependent increases”. In addition, the “follicle growth (histology, follicle counting)” value in the assay with Ovaries from day 10 mice [1] (FIG. 1C, 1D) is on record as “enhancement of follicle growth from early secondary to the late secondary stage”. In addition, the graft weights entry with Ovaries from day 10 mice [2] (grafted into adult hosts, daily FSH 5 days, FIG. 2A) is “increased”. The antral/preovulatory follicles result with Ovaries from day 10 mice [2] (grafts 5 days with FSH, FIG. 2B, 2C) is recorded as “increases in the development of antral/preovulatory follicles”. In the assay with Ovaries from day 10 mice [2] (setting [3]), the early secondary follicles entry was “decrease of early secondary follicles” and the primary follicles entry is on record as “increase of primary follicles”. Moreover, in the assay with mTOR signaling pathway, the phospho-mTOR levels entry is “increased”, the “phosphorylation of S6K1” value was “increased” and the “phosphorylation of rpS6” value is “increased”.

Take `O=C([O-])c1ccccn1.OO.OO.[K+].[K+].[OH-].[V]` [dipotassium bisperoxo(picolinato)oxovanadate (V)]: the IC50 at PTEN was 31 nM.
